According to patent publication US12453757B2, “Method for ameliorating autism symptoms by pharmacological activation of the neurotensin receptor 1 (NTSR1)” (New York Institute of Technology, priority 2022, dated 2025):
Structures can show the parent of a compound that is named as a salt. Numbered stars: 1 amine (or outer) side, 2 acyl side, 3 side chain; on linkers, the order of the positions; unused ones are H or OH. Square brackets hold non-standard residues; d marks the D form. Peptide text beside a SMILES is read from it. X1 = NCCCC[C@H](N)CN([C@@H](CCCCN)C(=O)[*:2])[*:1]; Tle = CC(C)(C)[C@H](N)C(=O)O

Key:
[1] = test system: SHANK3 and CNTNAP2 mouse models of autism; experiment: Odor detection in novel background odors, both mouse models of autism pooled (dose response, duration); assay type: in vivo
Procedure: FIG. 3: Performance of odor detection in novel environments as a function of the dose of PD149163 injected subcutaneously using saline as vehicle. The bars represent the average performance for all 10 tested mice (four CNTNAP2 mice and six SHANK3 mice) at the three doses tested. The error bars are the 95% CI. The lines represent the performance for individual mice. The p values were calculated using paired t-test to compare the average performances of the 10 tested mice using the 0.13 mg/kg against the 0.065 mg/kg dose and the no drug condition.
(§1) In order to test the effect of NTSR1 agonists, a novel behavioral task was used developed in the lab. In this task (see FIG. 1), water-deprived, head-fixed mice were trained to identify target odors in the presence of background odors. If the mouse responded to the go target odors, it was rewarded with water. If the mouse wrongly responded to the no-go target odors, no water was delivered and it experienced a time out. Chance performance was 0.5 and optimal performance was 1. After mice mastered this task (performance>0.8) with a set of known background odors after ˜10 days of training, the animals were tested with the same targets but in the presence of novel background odors. The performance of WT mice with novel background odors is above chance (0.74, 95% CI: 0.68-0.80, 3 WT mice). […]

[2] = test system: SHANK3 haploinsufficiency mouse model of autism; experiment: Odor detection in novel background odors (go/no-go behavioral task), SHANK3 haploinsufficiency mice; assay type: in vivo; details: 6 mice, 0.13 mg/kg subcutaneous in saline, 30 minutes before test, chance 0.5, optimal 1
Procedure: (§2) FIG. 1: Behavioral task used to test the effect of PD149163. Water-deprived, head-fixed mice were trained to identify target odors in the presence of background odors. […] If the target was the “go target” odors and the mouse licked, the mouse was rewarded with a small amount water. If the mouse wrongly licked the “no-go target” odors, no water was delivered and it was given a time out. After 10-13 days, mice performance exceeded 80%. The mice were then tested with the test set, that consisted of the same target odors but with novel background odors.
as §1

[3] = test system: mice; experiment: Lethargy side effect after injection; assay type: in vivo, mouse
[4] = test system: CNTNAP2 knockout mouse model of autism; experiment: Odor detection in novel background odors (go/no-go behavioral task), CNTNAP2 knockout mice; assay type: in vivo
Procedure: as §2
In order to test the effect of NTSR1 agonists, a novel behavioral task was used developed in the lab. In this task (see FIG. 1), water-deprived, head-fixed mice were trained to identify target odors in the presence of background odors. If the mouse responded to the go target odors, it was rewarded with water. If the mouse wrongly responded to the no-go target odors, no water was delivered and it experienced a time out. Chance performance was 0.5 and optimal performance was 1. After mice mastered this task (performance>0.8) with a set of known background odors after ˜10 days of training, the animals were tested with the same targets but in the presence of novel background odors. The performance of WT mice with novel background odors is above chance (0.74, 95% CI: 0.68-0.80, 3 WT mice).
This novel behavioral task was used to test the effects of the neurotensin receptor 1 agonists. The performances of both mouse models of autism without PD149163 (a peptide neurotensin receptor 1 agonist) were lower than the performance of the WT mice (SHANK3 haploinsufficiency: 0.62, 95% CI: 0.59-0.66, 6 mice, each mouse tested on 4 different days, CNTNAP2 knockout: 0.61, 95% CI: 0.56-0.65, 4 mice) (see FIG. 2). […] This dosage reversed the recognition deficit in novel environments shown by both mouse models of autism, with performance that matched the performance of the WT mice (SHANK3 haploinsufficiency: 0.81, 95% CI: 0.77-0.85, 6 mice, each mouse tested on 2 different days, CNTNAP2 knockout: 0.82, 95% CI: 0.77-0.86, 4 mice). […]

`CCOC(=O)[C@H](CC(C)C)NC(=O)[C@@H](NC(=O)[C@H](Cc1c[nH]c2ccccc12)NC(=O)[C@@H]1CCCN1C(=O)[C@H](CCCCN)NC[C@@H](N)CCCCN)C(C)(C)C` [PD149163, N2-[(2S)-2,6-Diaminohexyl]-L-lysyl-L-prolyl-L-tryptophyl-3-methyl-L-valyl-L-Leucine ethyl ester tetrahydrochloride hydrate] (H-[X1]PW[Tle]L-OEt) was tested, and the “Duration of drug effects on performance” value ([1]; 0.13 mg/kg subcutaneous in saline, returned to baseline the next day) was “less than 24 hours”, the “Improvement of behavior (odor detection performance)” value ([1]; half dose 0.065 mg/kg subcutaneous, saline as vehicle) was “did not produce an improvement” and the “Performance of odor detection with novel background odors” value (“Performance of odor detection” below) [2] was 0.81. The Lethargy ([3]; 0.26 mg/Kg subcutaneous, PEG400 as vehicle, 2 SHANK3 mice) was “no lethargy”, the Lethargy ([3]; 0.26 mg/kg subcutaneous, saline as vehicle) was “produced lethargy” and the Lethargy ([3]; therapeutic dose by intraperitoneal injection instead of subcutaneous) was “resulted also in lethargy”. The “Performance of odor detection” value ([4]; CNTNAP2 knockout male mice (2 mice, 2 sessions), 0.39 mg/kg in PEG400 (80 μg/ml), two subcutaneous injections 1 hour and 30 minutes before task) was 0.76, the “Performance of odor detection” value ([4]; CNTNAP2 knockout male mice (2 mice, 5 sessions), 0.13 mg/kg subcutaneous in saline, 30 minutes before test) was 0.54 and the “Performance of odor detection” value ([4]; CNTNAP2 knockout, 4 mice, 0.13 mg/kg subcutaneous in saline, 30 minutes before test, chance 0.5, optimal 1) was 0.82.
